# Test results from paper PMC5743070 (The Journal of Biological Chemistry, 2017).
# Tests used:
# [1] = molecular target: isolated TTD (UHRF1_121–286); test: FP displacement of FITC-labeled H3K9me3(1–25) peptide from TTD; assay type: biochemical; settings: FP displacement of N-terminally FITC-labeled H3K9me3(1-25), 0.04 μM peptide, 8 μM TTD, 20 mM Tris pH 8.5, 50 mM NaCl, 3% DMSO, 0.01% TX100
# Excerpt: We designed a fragment library containing 2,040 compounds that was initially screened against isolated TTD (UHRF1_121–286) using a fluorescence polarization (FP) assay that tracked the displacement of a N-terminally tagged H3K9me3 peptide (H3K9me3(1–25)). From this screen, eight putative TTD-binding hits were identified. […] Because of limited commercial availability of the tricyclic amine, we focused only on BPC. The binding of this compound occurs close to (or within) the Arg^296-binding pocket; we observe significant perturbation of Trp^238 and Phe^278 resonances that form part of the pocket, and in Gly^236, which is directly adjacent to it (Fig. 4A and supplemental Fig. S5). We also see chemical shift changes in non-surface exposed residues that are close to or are in contact with the groove.
# For FP assays, the TTD (UHRF1_121–286) was buffered in 20 mM Tris (pH 8.5), 50 mM NaCl, 3% DMSO, and 0.01% TX100. N-terminal FITC-labeled H3K9me3(1–25) peptide was synthesized and purified by Tufts University Core Services (Boston, MA). Titrations and compound binding assays were performed in a 10-μl volume at a constant labeled peptide concentration of 0.04 μM. For compound screening and titrations, a non-saturating fixed protein concentration of 8 μM TTD was used. FP assays were performed in 384-well Axygen plates using a Synergy 4 microplate reader (BioTek). […]
# TTD–PHD (UHRF1_126–366) = molecular target: T1, TTD–PHD (UHRF1_126–366) (Homo sapiens, UniProt Q96T88); test: SAXS of TTD–PHD in the presence of BPC
# T1 construct: His tag (TEV-cleavable) (N); made in house
# T1 sequence (Q96T88 126-366): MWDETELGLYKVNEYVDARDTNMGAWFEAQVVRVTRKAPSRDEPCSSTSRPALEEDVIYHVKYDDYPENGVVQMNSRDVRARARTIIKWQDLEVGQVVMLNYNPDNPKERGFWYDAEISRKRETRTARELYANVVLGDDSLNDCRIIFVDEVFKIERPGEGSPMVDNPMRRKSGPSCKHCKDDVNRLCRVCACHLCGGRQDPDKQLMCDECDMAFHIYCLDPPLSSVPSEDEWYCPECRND
# Procedure: All SAXS samples were buffered in 20 mM Tris (pH 7.5), 150 mM NaCl, 5 mM DTT, 5 mM β-mercaptoethanol, 2 mM TCEP and 10 μM ZnCl2, and data were collected at concentrations ranging from ∼1 to 5 mg/ml. Measurements were carried out at Beamline 12-ID-B of the Advanced Photon Source, Argonne National Laboratory. The energy of the X-ray beam was 14 Kev (wavelength λ = 0.8856 Å), and two setups (small- and wide-angle X-ray scattering) were used simultaneously in which the sample to 2M detector distance was adjusted to achieve scattering q values of 0.006 < q < 2.6 Å^−1, where q = (4π/λ)sinθ, and 2θ is the scattering angle. To reduce radiation damage and obtain good statistics, thirty 2D images were recorded for each buffer or sample solution using a flow cell, with an accumulated exposure time of 0.4–2.0 s. No radiation damage was observed as confirmed by the absence of systematic signal changes in sequentially collected X-ray scattering images. The scattering profile of the protein was calculated by subtracting the background buffer contribution from the […] using the program PRIMUS (ATSAS package, EMBL) ([35]). Concentration series measurements for a sample were carried out to remove the scattering contribution caused by interparticle interactions and to extrapolate the data to infinite dilution. Guinier analysis and the experimental radius of gyration (Rg) estimation from the data of infinite dilution were performed using PRIMUS. The pair distance distribution function, P(r), and the maximum dimension of the protein, Dmax, in real space were calculated with the indirect Fourier transform using the program GNOM ([36]). To avoid underestimation of the molecular dimension and consequent distortion in low resolution structural reconstruction, the parameter Dmax, the upper end of distance r, was chosen such that the resulting PDDF has a short, near zero-value tail at large r. The Rg from P(r) analysis was also reported. The molecular weights were estimated using Vc ([37]) in the q range of 0 < q < 0.3 Å^−1. Fifteen ab initio shape reconstructions (molecular envelopes) were generated using DAMMIF ([38]) and averaged with DAMAVER ([39]). The structural models were superimposed and overlaid with the averaged envelope using SUPCOMP ([40]). The theoretical scattering intensity of a structural model was calculated and fitted to the experimental scattering intensity using CRYSOL ([41]).
# Table S1 (related to Fig. 1, S1, S4): SAXS parameters for the TTD-PHD module SAXS HTG-TTD-PHDa TTD-PHD/BPCb […]
# b UHRF1126-366 in complex with BPC (2 mM, 4% DMSO) […]
# d Rg calculated using Guinier fit e Rg calculated using GNOM (5) f Maximum distance between atoms from GNOM g Volume of correlation (6) h Mw estimated from SAXS data using Vc (6). The Mw expected from sequence is shown in parentheses i Normalized spatial discrepancy. The values are the average and standard deviation from fifteen runs
# [2] = 2 mM BPC, 4% DMSO, GNOM, Table S1
smiles,measurement,setting,value
"N=C(N)N1CCC(Cc2ccccc2)CC1 [BPC, 4-benzylpiperidine-1-carboximidamide]",Kdisp,[1],312 µM
same,Dmax of TTD-PHD with BPC,TTD–PHD (UHRF1_126–366); [2],94 Å
same,Rg real (GNOM) of TTD-PHD with BPC,TTD–PHD (UHRF1_126–366); [2],27.1 Å
same,Rg (Guinier fit) of TTD-PHD with BPC,"TTD–PHD (UHRF1_126–366); 2 mM BPC, 4% DMSO, Guinier fit, Table S1",26.6 Å
same,Vc (volume of correlation) of TTD-PHD with BPC,"TTD–PHD (UHRF1_126–366); 2 mM BPC, 4% DMSO, Table S1",280.5
same,Rg (Guinier fit) of TTD–PHD with BPC,"TTD–PHD (UHRF1_126–366); 4 mM BPC, 4% DMSO, 20 mM Tris pH 7.5, 150 mM NaCl, Guinier fit, apo 24.5",27.1 Å
same,Vc (volume of correlation) of TTD–PHD with BPC,"TTD–PHD (UHRF1_126–366); 4 mM BPC, 4% DMSO, apo 274.3",284.4
same,Rg real (GNOM) of TTD–PHD with BPC,"TTD–PHD (UHRF1_126–366); 4 mM BPC, 4% DMSO, from GNOM, apo 24.9",27.2 Å
same,Dmax of TTD–PHD with BPC,"TTD–PHD (UHRF1_126–366); 4 mM BPC, 4% DMSO, from GNOM, apo 83",94 Å
same,shallow secondary shoulder of pair-distance distribution function,"TTD–PHD (UHRF1_126–366); TTD–PHD with BPC (4 mM, 4% DMSO)",~50 Å
